Common to all, as to assay: KinomeScan profiling
Common to all, as to format: binding

One experiment concerns the target PKNB(M. tuberculosis) (Mycobacterium tuberculosis, UniProt P9WI81). As to conditions: read-out: % control.
In a further experiment the target is CDK9 (Homo sapiens, UniProt P50750). The settings on record: CDK9, 1 μM; read-out: % control. How it is done: (§1) The kinase selectivity of inventive compounds 77, 96 and 101 was evaluated by KinomeScan®. KinomeScan® analysis was performed against a near comprehensive panel of 468 kinases. The control percentage (% control) for inventive compounds at 1 μM in DMSO was determined by Equation 1: % control=(inventive compound−positive control)/(negative control−positive control)×100%, Equation 1
CDK9, sequence (P50750 whole entry): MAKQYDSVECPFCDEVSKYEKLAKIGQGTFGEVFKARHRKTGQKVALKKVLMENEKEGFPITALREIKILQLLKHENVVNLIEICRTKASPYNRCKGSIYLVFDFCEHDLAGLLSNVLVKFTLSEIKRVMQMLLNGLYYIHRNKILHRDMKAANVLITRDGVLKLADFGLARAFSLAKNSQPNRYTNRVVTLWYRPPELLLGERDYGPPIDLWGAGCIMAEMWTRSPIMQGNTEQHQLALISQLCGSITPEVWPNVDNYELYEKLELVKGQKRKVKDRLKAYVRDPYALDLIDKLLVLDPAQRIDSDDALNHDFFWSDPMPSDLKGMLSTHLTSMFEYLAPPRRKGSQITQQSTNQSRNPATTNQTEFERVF
(§2) wherein the positive control is a compound with a % control value of 0% relative light units (RLU), and the negative control (i.e., DMSO) has % control value of 100% RLU. The enzyme selectivity in the present invention is defined as follows: inventive compounds are considered active for an enzyme when the observed % control is less than 35% (<35%).

The next experiment deals with T1, LATS2 (Homo sapiens, UniProt Q9NRM7).
T1 sequence (Q9NRM7 1-1088): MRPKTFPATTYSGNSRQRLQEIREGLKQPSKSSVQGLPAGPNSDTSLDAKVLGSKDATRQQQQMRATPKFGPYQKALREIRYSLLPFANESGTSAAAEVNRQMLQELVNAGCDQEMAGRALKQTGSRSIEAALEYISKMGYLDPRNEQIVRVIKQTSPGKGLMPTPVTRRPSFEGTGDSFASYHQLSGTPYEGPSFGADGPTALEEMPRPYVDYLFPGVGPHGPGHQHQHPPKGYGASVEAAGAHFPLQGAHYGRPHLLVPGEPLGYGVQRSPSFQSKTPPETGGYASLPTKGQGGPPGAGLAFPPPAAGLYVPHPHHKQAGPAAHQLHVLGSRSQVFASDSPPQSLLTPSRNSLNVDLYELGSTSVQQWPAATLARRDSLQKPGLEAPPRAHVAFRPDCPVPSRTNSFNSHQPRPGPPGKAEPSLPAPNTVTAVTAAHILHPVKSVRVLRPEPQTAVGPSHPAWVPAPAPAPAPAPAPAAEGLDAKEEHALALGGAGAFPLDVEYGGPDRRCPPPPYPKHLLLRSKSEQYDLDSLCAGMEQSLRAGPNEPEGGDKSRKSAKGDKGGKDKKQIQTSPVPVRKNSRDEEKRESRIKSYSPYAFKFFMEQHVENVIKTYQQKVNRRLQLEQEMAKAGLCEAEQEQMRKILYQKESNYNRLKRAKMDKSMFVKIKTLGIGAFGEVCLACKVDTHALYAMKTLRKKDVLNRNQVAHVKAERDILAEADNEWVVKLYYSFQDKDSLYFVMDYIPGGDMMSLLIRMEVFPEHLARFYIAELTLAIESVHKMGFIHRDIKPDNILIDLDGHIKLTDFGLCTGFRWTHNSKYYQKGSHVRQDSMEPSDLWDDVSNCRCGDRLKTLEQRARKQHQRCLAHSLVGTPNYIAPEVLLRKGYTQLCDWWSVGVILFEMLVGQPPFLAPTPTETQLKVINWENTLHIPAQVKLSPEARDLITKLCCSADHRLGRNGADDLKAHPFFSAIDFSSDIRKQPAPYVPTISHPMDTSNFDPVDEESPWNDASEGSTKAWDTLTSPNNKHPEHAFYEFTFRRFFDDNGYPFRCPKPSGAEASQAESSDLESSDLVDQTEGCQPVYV
The settings on record: LATS2, 1 μM; read-out: % control. How it is done: as §1, §2

A further experiment has as its target T2, RIPK4 (Homo sapiens, UniProt P57078).
T2 sequence (P57078 1-832): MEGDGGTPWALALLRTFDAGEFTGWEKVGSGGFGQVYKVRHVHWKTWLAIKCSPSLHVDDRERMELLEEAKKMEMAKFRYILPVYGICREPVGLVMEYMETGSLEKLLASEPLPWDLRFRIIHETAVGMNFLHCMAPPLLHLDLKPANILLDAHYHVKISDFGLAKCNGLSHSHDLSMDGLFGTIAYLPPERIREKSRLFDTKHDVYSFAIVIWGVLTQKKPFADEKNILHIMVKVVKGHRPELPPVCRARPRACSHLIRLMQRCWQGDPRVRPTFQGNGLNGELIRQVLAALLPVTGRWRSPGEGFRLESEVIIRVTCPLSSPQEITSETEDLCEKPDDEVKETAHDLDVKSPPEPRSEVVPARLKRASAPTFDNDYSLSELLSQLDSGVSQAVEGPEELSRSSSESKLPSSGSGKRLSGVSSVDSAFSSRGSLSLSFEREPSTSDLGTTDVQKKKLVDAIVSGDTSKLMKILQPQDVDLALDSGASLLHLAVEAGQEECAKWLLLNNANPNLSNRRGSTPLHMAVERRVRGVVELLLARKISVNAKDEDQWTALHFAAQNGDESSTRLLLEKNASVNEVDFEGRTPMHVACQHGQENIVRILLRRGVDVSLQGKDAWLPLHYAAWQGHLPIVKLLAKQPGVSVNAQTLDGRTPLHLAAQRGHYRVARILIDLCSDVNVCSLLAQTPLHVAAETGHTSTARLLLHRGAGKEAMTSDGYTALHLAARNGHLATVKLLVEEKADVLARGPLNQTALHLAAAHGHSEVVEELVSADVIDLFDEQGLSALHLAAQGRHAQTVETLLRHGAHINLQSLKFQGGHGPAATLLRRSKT
The settings on record: RIPK4, 1 μM; read-out: % control. How it is done:
as §1, §2

Molecules are shown by their SMILES.

PKNB(M. tuberculosis), sequence (P9WI81 whole entry): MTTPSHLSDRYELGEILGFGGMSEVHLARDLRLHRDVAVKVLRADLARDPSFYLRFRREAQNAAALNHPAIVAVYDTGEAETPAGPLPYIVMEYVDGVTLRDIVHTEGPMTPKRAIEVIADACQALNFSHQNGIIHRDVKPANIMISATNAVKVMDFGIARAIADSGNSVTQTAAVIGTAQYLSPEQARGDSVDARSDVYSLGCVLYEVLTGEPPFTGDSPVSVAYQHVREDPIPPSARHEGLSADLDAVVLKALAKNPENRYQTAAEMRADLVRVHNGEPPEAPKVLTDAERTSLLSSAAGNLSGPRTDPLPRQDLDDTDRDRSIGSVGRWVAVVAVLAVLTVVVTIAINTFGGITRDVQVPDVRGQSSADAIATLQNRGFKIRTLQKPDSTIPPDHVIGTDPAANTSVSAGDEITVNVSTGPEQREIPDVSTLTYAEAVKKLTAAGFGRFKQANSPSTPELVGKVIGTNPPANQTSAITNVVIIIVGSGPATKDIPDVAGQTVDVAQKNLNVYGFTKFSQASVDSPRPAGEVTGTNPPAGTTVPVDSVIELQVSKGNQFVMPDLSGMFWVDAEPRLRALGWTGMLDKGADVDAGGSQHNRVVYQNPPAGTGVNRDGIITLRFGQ

As to `CNc1c(-c2ccc(C(=O)N3CCC(N4CCOCC4)CC3)cc2)cnc2[nH]cc(Cl)c12` [Compound 96, (4-(3-chloro-4-(methylamino)-1H-pyrrolo[2,3-b]pyridin-5-yl)phenyl)(4-morpholinopiperidin-1-yl)methanone], the remaining binding at 1 µM at PKNB(M. tuberculosis) stood at 61%; at CDK9 it was 87%; at LATS2, 78%; on RIPK4, 7.8%.

As to `O=C(c1ccc(-c2cnc3[nH]cc(Cl)c3c2NC2CCCC2)cc1)N1CCC(N2CCOCC2)CC1` [Compound 101, (4-(3-chloro-4-(cyclopentylamino)-1H-pyrrolo[2,3-b]pyridin-5-yl)phenyl)(4-morpholinopiperidin-1-yl)methanone], the remaining binding at 1 µM on PKNB(M. tuberculosis) amounted to 89%; on CDK9, 96%; at LATS2, 82%; on RIPK4 it was 100%.

For the compound `CNc1c(-c2cnn([C@H]3CCN(C(C)=O)C[C@@H]3F)c2)cnc2[nH]cc(Cl)c12` [Compound 77, 1-((3S,4S)-4-(4-(3-chloro-4-(methylamino)-1H-pyrrolo[2,3-b]pyridin-5-yl)-1H-pyrazol-1-yl)-3-fluoropiperidin-1-yl)ethan-1-one], the remaining binding at 1 µM at PKNB(M. tuberculosis) is 30%; at CDK9 it was 83%; on LATS2, 86%; on RIPK4 it was 1.3%.

(Values after patent US12275731B2, “Azaindole inhibitors of wild-type and mutant forms of LRRK2” (DANA-FARBER CANCER INSTITUTE, INC., priority 2018, dated 2025).)
